Test results reported in article PMC7216583 (Parasites & Vectors, 2020).
Where a name gives a salt, the structure may show the parent alone. Read-outs that look alike come from different tables or passages of the source.

Experiments:
[1] = test system: Toxoplasma gondii RH-2F tachyzoites; experiment: microbe, parasite or virus in culture; conditions: 72 h
[2] = test system: nonsense mutation; conditions: ref vendor brief description; read-out: EC50 nonsense mutation inhibition; cited from earlier work
[3] = biological target: transient receptor potential vanilloid-1 (TRPV1); set-up: method as in vendor brief description; conditions: ref vendor brief description; cited from earlier work
[4] = biological target: cannabinoid type 1 receptor; set-up: method as in vendor brief description; conditions: ref vendor brief description; cited from earlier work
[5] = test system: Flt-4; set-up: method as in vendor brief description; conditions: ref vendor brief description; cited from earlier work
[6] = in vitro; conditions: human, Host viability (%) mean
[7] = test system: Ret; set-up: method as in vendor brief description; conditions: ref vendor brief description; cited from earlier work
[8] = test system: VEGFR-2; set-up: method as in vendor brief description; conditions: ref vendor brief description; cited from earlier work
[9] = test system: Kit; set-up: method as in vendor brief description; conditions: ref vendor brief description; cited from earlier work
[10] = test system: AXL; set-up: method as in vendor brief description; conditions: ref vendor brief description; cited from earlier work
[11] = test system: Flt-1; set-up: method as in vendor brief description; conditions: ref vendor brief description; cited from earlier work
[12] = test system: class I PI3K; set-up: method as in library vendor description; conditions: ref library vendor description; read-out: IC50 pan-class I PI3K; cited from earlier work
[13] = test system: 5-HT2B; set-up: method as in vendor brief description; conditions: ref vendor brief description; cited from earlier work
[14] = biological target: recombinant human mGlu3 receptors; set-up: method as in vendor brief description; conditions: ref vendor brief description; cited from earlier work
[15] = biological target: recombinant human mGlu2; set-up: method as in vendor brief description; conditions: ref vendor brief description; cited from earlier work
[16] = biological target: rat neurons expressing native mGlu2/3 receptors; set-up: method as in vendor brief description; conditions: ref vendor brief description; cited from earlier work
[17] = test system: Pim1; conditions: read-out: IC50 Pim1; ref vendor brief description; cited from earlier work
[18] = test system: PI3Kγ; set-up: method as in vendor brief description; conditions: ref vendor brief description; cited from earlier work
[19] = biological target: human muscarinic AChR M1; set-up: method as in vendor brief description; conditions: ref vendor brief description; cited from earlier work
[20] = biological target: human muscarinic AChR M4; set-up: method as in vendor brief description; conditions: ref vendor brief description; cited from earlier work
[21] = biological target: human muscarinic AChR M3; set-up: method as in vendor brief description; conditions: ref vendor brief description; cited from earlier work
[22] = biological target: human muscarinic AChR M5; set-up: method as in vendor brief description; conditions: ref vendor brief description; cited from earlier work
[23] = biological target: human muscarinic AChR M2; set-up: method as in vendor brief description; conditions: ref vendor brief description; cited from earlier work
[24] = biological target: 5-HT3; set-up: method as in vendor brief description; conditions: ref vendor brief description; cited from earlier work
[25] = biological target: N-methyl-D-aspartate (NMDA) receptor; set-up: method as in vendor brief description; conditions: ref vendor brief description; cited from earlier work
[26] = test system: sodium channel; set-up: method as in vendor brief description; conditions: ref vendor brief description; cited from earlier work
[27] = test system: nAChR; set-up: method as in vendor brief description; conditions: ref vendor brief description; cited from earlier work
[28] = biological target: epidermal growth factor receptor (EGFR); set-up: method as in vendor brief description; conditions: ref vendor brief description; read-out: IC50 EFGR; cited from earlier work
[29] = test system: JAK3; set-up: method as in vendor brief description; conditions: ref vendor brief description; cited from earlier work
[30] = test system: TGM2; set-up: method as in vendor brief description; conditions: ref vendor brief description; cited from earlier work
[31] = test system: JAK1; set-up: method as in vendor brief description; conditions: ref vendor brief description; cited from earlier work
[32] = biological target: gastric H+, K+-ATPase; set-up: method as in vendor brief description; conditions: at pH 6.5; ref vendor brief description; cited from earlier work
[33] = test system: Abl; set-up: method as in vendor brief description; conditions: ref vendor brief description; read-out: IC50 Abl-1; cited from earlier work
[34] = test system: CSF-1R; set-up: method as in vendor brief description; conditions: ref vendor brief description; cited from earlier work
[35] = test system: B-Raf; set-up: method as in vendor brief description; conditions: ref vendor brief description; cited from earlier work
[36] = test system: c-Raf; set-up: method as in vendor brief description; conditions: ref vendor brief description; cited from earlier work
[37] = biological target: tyrosinase; set-up: method as in vendor brief description; conditions: ref vendor brief description; cited from earlier work
[38] = biological target: myeloperoxidase; conditions: read-out: IC50 myeloperoxidase; ref vendor brief description; cited from earlier work
[39] = test system: Toxoplasma gondii RH-2F tachyzoites
[40] = biological target: αvβ3 receptor; set-up: method as in vendor brief description; conditions: ref vendor brief description; cited from earlier work
[41] = biological target: αvβ5 receptor; set-up: method as in vendor brief description; conditions: ref vendor brief description; cited from earlier work
[42] = test system: non-muscle myosin II ATPases; set-up: method as in vendor brief description; conditions: ref vendor brief description; cited from earlier work
[43] = test system: LMP7; set-up: method as in vendor brief description; conditions: read-out: IC50 CT-L activity of 20S proteasome LMP7; ref vendor brief description; cited from earlier work
[44] = test system: 20S proteasome β5; set-up: method as in vendor brief description; conditions: read-out: IC50 CT-L activity of 20S proteasome β5; ref vendor brief description; cited from earlier work
[45] = biological target: H3K27 histone demethylase JMJD3/UTX; set-up: method as in vendor brief description; conditions: ref vendor brief description; cited from earlier work
[46] = test system: β3-adrenoceptor; set-up: method as in vendor brief description; conditions: ref vendor brief description; cited from earlier work
[47] = test system: P-glycoprotein; conditions: cited from earlier work
[48] = test system: PDE5; conditions: read-out: IC50 PDE5; ref vendor brief description; cited from earlier work
[49] = biological target: β2-adrenergic receptor; set-up: method as in vendor brief description; conditions: ref vendor brief description; cited from earlier work
[50] = test system: 4-hydroxylation; set-up: method as in vendor brief description; conditions: ref vendor brief description; cited from earlier work
[51] = test system: CYP2C9; set-up: method as in vendor brief description; conditions: ref vendor brief description; cited from earlier work
[52] = test system: S1P; set-up: method as in vendor brief description; conditions: ref vendor brief description; cited from earlier work
[53] = read-out: Parasite inhibition (%) mean, preliminary screen of compound library, mean

O=C(O)c1cccc(-c2noc(-c3ccccc3F)n2)c1 [PTC124 (Ataluren)]
inhibition of growth at 5 µM [1, 53]: -0.1%
EC50 [2]: ~100 nM

CC(=O)Nc1nc2c(Oc3cc(-c4ccc(C(F)(F)F)cc4)ncn3)cccc2s1 [AMG-517]
IC50 [3]: < 10 nM
inhibition of growth at 5 µM [1, 53]: 0.6%

CCNC1(C(N)=O)CCN(c2ncnc3c2nc(-c2ccccc2Cl)n3-c2ccc(Cl)cc2)CC1 [Otenabant (CP-945598) HCl]
Ki [4]: 0.7 nM
inhibition of growth at 5 µM [1, 53]: 0.3%

COc1cc2nccc(Oc3ccc(NC(=O)C4(C(=O)Nc5ccc(F)cc5)CC4)cc3)c2cc1OC [Cabozantinib malate]
IC50 [5]: 6 nM
viability at 72 h [6]: 43.1%
IC50 [8]: 0.035 nM
inhibition of growth at 5 µM [1, 53]: 80.4%
IC50 [11]: 12 nM

FC(F)c1nc2ccccc2n1-c1nc(N2CCOCC2)nc(N2CCOCC2)n1 [ZSTK474]
IC50 [12]: 37 nM
inhibition of growth at 5 µM ([1]; read-out: Parasite inhibition (%) mean, preliminary screen, mean): 49.8%

N#Cc1cc(CN2CCC(Nc3ncnc4sc(Cl)cc34)CC2)ccc1F [PRX-08066]
inhibition of growth at 5 µM [1, 53]: 40.5%
IC50 [13]: 3.4 nM

N[C@@]1(C(=O)O)CS(=O)(=O)[C@H]2[C@H](C(=O)O)[C@H]21 [LY2140023 (LY404039)]
Ki [14]: 92 nM
Ki [15]: 149 nM
inhibition of growth at 5 µM [1, 53]: 2.9%
Ki [16]: 88 nM

O=C1NC(=O)/C(=C\c2cccc(C(F)(F)F)c2)S1 [SMI-4a]
inhibition of growth at 5 µM [1, 53]: 8.9%
IC50 [17]: 17 nM

C[C@H](Nc1ncnc2[nH]cnc12)c1cc2cccc(Cl)c2c(=O)n1-c1ccccc1 [IPI-145 (INK1197)]
IC50 [18]: 50 nM
inhibition of growth at 5 µM [1, 53]: 1.9%

O=C(O[C@H]1C[N+]2(CCCOc3ccccc3)CCC1CC2)C(O)(c1cccs1)c1cccs1 [Aclidinium Bromide]
Ki [19]: 0.1 nM
Ki [20]: 0.21 nM
Ki [21]: 0.14 nM
inhibition of growth at 5 µM ([1]; read-out: Parasite inhibition (%) mean): 1.8%
Ki [22]: 0.16 nM
Ki [23]: 0.14 nM

CCN(CC)CCOC(=O)c1ccc(N)cc1 [Procaine (Novocaine) HCl]
Kd [24]: 1700 nM
IC50 [25]: 296000 nM
IC50 [26]: 60000 nM
inhibition of growth at 5 µM [1, 53]: 3.7%
IC50 [27]: 45500 nM

CC(C)N(CCC(=O)c1ccc2ccccc2c1)Cc1ccccc1 [ZM 39923 HCl]
IC50 [28]: 5600 nM
IC50 [29]: 7100 nM
inhibition of growth at 5 µM [1, 53]: 13.9%
IC50 [30]: 10 nM
IC50 [31]: 4400 nM

CNCc1cc(-c2ccccc2F)n(S(=O)(=O)c2cccnc2)c1 [TAK-438]
IC50 [32]: 19 nM
inhibition of growth at 5 µM [1, 53]: -9.6%

COc1cc2ncnc(Oc3cccc(NC(=O)Nc4cc(C(C)(C)C(F)(F)F)on4)c3)c2cc1OC [CEP-32496]
IC50 [33]: 3 nM
IC50 [34]: 9 nM
IC50 [35]: 36 nM
inhibition of growth at 5 µM [1, 53]: 0%
IC50 [36]: 39 nM

Oc1ccc(OC2CCCCO2)cc1 (stereo not drawn) [Deoxyarbutin]
inhibition of growth at 5 µM [1, 53]: 33.4%
IC50 [37]: 50 nM

O=N[O-].[Na+] [Sodium Nitrite]
IC50 [38]: 1300 nM
Parasite inhibition (%) mean [39]: 49.5%

CC(C)[C@H]1C(=O)N[C@@H](CCCNC(=N)N)C(=O)NCC(=O)N[C@@H](CC(=O)O)C(=O)N[C@H](Cc2ccccc2)C(=O)N1C [Cilengitide (EMD 121974, NSC 707544)]
Parasite inhibition (%) mean ([39]; 72 h, 5 μM): 4.9%
IC50 [41]: 79 nM

Cc1ccc2c(c1)C(=O)[C@]1(O)CCN(c3ccccc3)C1=N2 [(−)-Blebbistatin]
inhibition of growth at 5 µM [1, 53]: -56.7%
IC50 [42]: 500 to 5000 nM

COC[C@H](NC(=O)c1cnc(C)s1)C(=O)N[C@@H](COC)C(=O)N[C@@H](Cc1ccccc1)C(=O)C1(C)CO1 (stereo partly drawn) [Oprozomib (ONX 0912)]
IC50 [43]: 82 nM
IC50 [44]: 36 nM
inhibition of growth at 5 µM [1, 53]: 9%

O=C(O)CCNc1cc(N2CCc3ccccc3CC2)nc(-c2ccccn2)n1 [GSK J1]
IC50 [45]: 60 nM

Nc1nc(CC(=O)Nc2ccc(CCNC[C@H](O)c3ccccc3)cc2)cs1 [Mirabegron (YM178)]
EC50 [46]: 22.4 nM
inhibition of growth at 5 µM [1, 53]: 3.8%

COC1CCN(C(=O)c2cc(Cc3n[nH]c(=O)c4ccccc34)ccc2F)CC1 [AZD2461]
inhibition of growth at 5 µM [1, 53]: 11%
P-glycoprotein substrate property [47]: AZD2461 is a poor P-glycoprotein substrate with lower affinity for Pgp than does olaparib.

COc1ccc(CN=c2[nH]c(N3CCC[C@H]3CO)ncc2C(=O)NCc2ncccn2)cc1Cl [Avanafil]
inhibition of growth at 5 µM [1, 53]: 7.5%
IC50 [48]: 1 nM

CC(C)(C)NCC(O)c1cc(O)cc(O)c1 (stereo not drawn) [Terbutaline Sulfate]
IC50 [49]: 53 nM
inhibition of growth at 5 µM [1, 53]: 40.1%

CCCSc1nc(N[C@@H]2C[C@H]2c2ccc(F)c(F)c2)c2nnn([C@@H]3C[C@H](OCCO)[C@@H](O)[C@H]3O)c2n1 [Ticagrelor]
inhibition of growth at 5 µM [1, 53]: 4.7%
IC50 [51]: 10500 nM

CCCCCCCCc1ccc(CCC(N)(CO)CO)cc1 [Fingolimod (FTY720)]
inhibition of growth at 5 µM [1, 53]: 10%
IC50 [52]: 0.033 nM
